Values joined by “and” are separate entries in the source; they are usually repeats but may differ in a detail not shown here. Equal entries are not always repeated. Inconclusive results and toxic doses are left out. How the source made its calls: active means survival T/C of 150% or more; inactive means T/C below 125% in these data. Peptide text beside a SMILES is read from it. * marks the point of attachment. Cbz = O=C(OCc1ccccc1)*
System: P388 leukemia ip, CD2F1 mice, survival T/C
Test: NCI In Vivo Anticancer Drug Screen. Data for tumor model P388 Leukemia (intraperitoneal) in CD2F1 (CDF1) mice
Settings: endpoint: median survival time, higher = longer survival
In short: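 Mice carrying the transplanted tumor received test compound or vehicle. Survival was recorded in each group, and the value is the treated-group measurement divided by that of the vehicle-treated control group.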

[1] = dose: 50.0 mg/kg/injection, schedule: Q01DX005 (ip), vehicle: saline with Tween-80
[2] = dose: 100.0 mg/kg/injection, schedule: Q01DX005 (ip), vehicle: saline with Tween-80
[3] = dose: 200.0 mg/kg/injection, schedule: Q01DX005 (ip), vehicle: saline with Tween-80
[4] = dose: 50.0 mg/kg/injection, schedule: Q01DX005 (ip), vehicle: saline
[5] = dose: 100.0 mg/kg/injection, schedule: Q01DX005 (ip), vehicle: saline
[6] = dose: 200.0 mg/kg/injection, schedule: Q01DX005 (ip), vehicle: saline
[7] = dose: 25.0 mg/kg/injection, schedule: Q01DX009 (ip), vehicle: saline with Tween-80
[8] = dose: 50.0 mg/kg/injection, schedule: Q01DX009 (ip), vehicle: saline with Tween-80
[9] = dose: 50.0 mg/kg/injection, schedule: Q01DX009 (ip), vehicle: saline
[10] = dose: 100.0 mg/kg/injection, schedule: Q01DX009 (ip), vehicle: saline with Tween-80
[11] = dose: 100.0 mg/kg/injection, schedule: Q01DX009 (ip), vehicle: saline
[12] = dose: 200.0 mg/kg/injection, schedule: Q01DX009 (ip), vehicle: saline with Tween-80
[13] = dose: 60.0 mg/kg/injection, schedule: Q01DX005 (ip), vehicle: saline with Tween-80
[14] = dose: 120.0 mg/kg/injection, schedule: Q01DX005 (ip), vehicle: saline with Tween-80

Measured: T/C

O=C(CN1C(=O)c2cccc3c(Br)ccc(c23)C1=O)c1ccc(Cl)cc1
inactive: [1] 92 % of control | [2] 92 % of control | [3] 90 % of control

O=C(O)CCNC(=O)CCCO
inactive: [4] 100 % of control | [5] 104 % of control | [6] 104 % of control

Cc1cccc(Nc2c(N)nc(N)nc2N)c1
inactive: [7] 100 % of control | dose: 25.0 mg/kg/injection, schedule: Q04DX003 (ip), vehicle: saline with Tween-80 100 % of control | [8] 109 % of control | dose: 50.0 mg/kg/injection, schedule: Q04DX003 (ip), vehicle: saline with Tween-80 100 % of control | dose: 100.0 mg/kg/injection, schedule: Q04DX003 (ip), vehicle: saline with Tween-80 104 % of control and 118 % of control

CC(OP(=O)(O)O)C(N)C(=O)O (centres undefined)
inactive: [4] 97 % of control | [5] 93 % of control | [6] 98 % of control

O=C(NC(Cc1ccc(O)cc1)C(=O)NC(CO)C(=O)O)OCc1ccccc1 (stereo not drawn) (Cbz-Tyr-Ser-OH; configuration not given here)
inactive: [1] 101 % of control | [2] 101 % of control | [3] 106 % of control

CC(NC(=O)CCl)C(=O)O (centres undefined)
inactive: [7] 105 % of control and 109 % of control | [8] 101 % of control and 103 % of control | [9] 101 % of control | [10] 105 % of control and 95 % of control | [11] 105 % of control | [12] 103 % of control | dose: 200.0 mg/kg/injection, schedule: Q01DX009 (ip), vehicle: saline 101 % of control

O=C1CC(CO)CC2c3[nH]c4ccccc4c3CCN12 (centres undefined)
inactive: dose: 17.5 mg/kg/injection, schedule: Q01DX005 (ip), vehicle: Klucel (hydroxypropylcellulose) (HPC) 108 % of control | dose: 35.0 mg/kg/injection, schedule: Q01DX005 (ip), vehicle: Klucel (hydroxypropylcellulose) (HPC) 91 % of control | dose: 70.0 mg/kg/injection, schedule: Q01DX005 (ip), vehicle: Klucel (hydroxypropylcellulose) (HPC) 97 % of control

CN(NC(=O)C(=O)NCc1ccco1)C(=O)Nc1ccccc1
inactive: dose: 50.0 mg/kg/injection, schedule: Q01DX005 (ip), vehicle: Klucel (hydroxypropylcellulose) (HPC) 100 % of control | dose: 100.0 mg/kg/injection, schedule: Q01DX005 (ip), vehicle: Klucel (hydroxypropylcellulose) (HPC) 99 % of control | dose: 200.0 mg/kg/injection, schedule: Q01DX005 (ip), vehicle: Klucel (hydroxypropylcellulose) (HPC) 99 % of control

COP(=O)(OC)OC.COP(=O)(OC)OC.COP(=O)(OC)OC.COP(=O)(OC)OC.COP(=O)(OC)OC.[O-][Cl+3]([O-])([O-])O.[Zn+2]
inactive: dose: 25.0 mg/kg/injection, schedule: Q01DX009 (ip), vehicle: saline 104 % of control and 114 % of control | [9] 106 % of control and 112 % of control (2×) | [11] 118 % of control and 119 % of control and 123 % of control

Cn1c2ccccc2c(=O)c2c([N+](=O)[O-])ccc(NCCN)c21
inactive: dose: 60.0 mg/kg/injection, schedule: Q01DX005 (ip), vehicle: saline 109 % of control | dose: 120.0 mg/kg/injection, schedule: Q01DX005 (ip), vehicle: saline 114 % of control

COc1ccc(-c2cc3cc(OC)c(OC)cc3c(-c3ccccc3)n2)cc1OC
inactive: [13] 98 % of control | [14] 95 % of control | dose: 240.0 mg/kg/injection, schedule: Q01DX005 (ip), vehicle: saline with Tween-80 90 % of control

Clc1ccc(CN2CCCN(Cc3ccc(Cl)cc3)C2c2cc3ccccc3c3ccccc23)cc1
inactive: [1] 99 % of control | [2] 97 % of control | [3] 93 % of control

CC(=O)N1C(C(=O)O)Cc2c([nH]c3ccccc23)C1(C)C (centres undefined)
inactive: dose: 100.0 mg/kg/injection, schedule: Q01DX001 (ip), vehicle: suspension in saline 108 % of control | dose: 200.0 mg/kg/injection, schedule: Q01DX001 (ip), vehicle: suspension in saline 95 % of control | dose: 400.0 mg/kg/injection, schedule: Q01DX001 (ip), vehicle: suspension in saline 107 % of control

O=C(O)c1ccc2c(c1Sc1ccccc1)C(=O)c1ccccc1C2=O
inactive: dose: 60.0 mg/kg/injection, schedule: Q01DX005 (ip), vehicle: Klucel (hydroxypropylcellulose) (HPC) 110 % of control | dose: 120.0 mg/kg/injection, schedule: Q01DX005 (ip), vehicle: Klucel (hydroxypropylcellulose) (HPC) 107 % of control

O=S(=O)(F)/C=C/c1ccccc1
inactive: [8] 109 % of control | [10] 109 % of control

C=CC(=O)NC(=O)Nc1ccccc1Cl
inactive: dose: 6.25 mg/kg/injection, schedule: Q01DX009 (ip), vehicle: Klucel (hydroxypropylcellulose) (HPC) 102 % of control | dose: 12.5 mg/kg/injection, schedule: Q01DX009 (ip), vehicle: Klucel (hydroxypropylcellulose) (HPC) 106 % of control | dose: 25.0 mg/kg/injection, schedule: Q01DX009 (ip), vehicle: Klucel (hydroxypropylcellulose) (HPC) 109 % of control and 118 % of control

COC(=O)Nc1nnc(Cn2c([N+](=O)[O-])cnc2C)s1
inactive: dose: 100.0 mg/kg/injection, schedule: Q01DX001 (ip), vehicle: Klucel (hydroxypropylcellulose) (HPC) 96 % of control | dose: 200.0 mg/kg/injection, schedule: Q01DX001 (ip), vehicle: Klucel (hydroxypropylcellulose) (HPC) 101 % of control | dose: 400.0 mg/kg/injection, schedule: Q01DX001 (ip), vehicle: Klucel (hydroxypropylcellulose) (HPC) 93 % of control

NC(=O)CSc1nnc2ccccn12
inactive: dose: 50.0 mg/kg/injection, schedule: Q04DX003 (ip), vehicle: saline 92 % of control | dose: 100.0 mg/kg/injection, schedule: Q04DX003 (ip), vehicle: saline 100 % of control | dose: 200.0 mg/kg/injection, schedule: Q04DX003 (ip), vehicle: saline 104 % of control

Cc1cc(N)ccc1N=Nc1ccc(N=Nc2ccc(N=Nc3ccc4cc(S(=O)(=O)O)cc(S(=O)(=O)O)c4c3)c(C)c2)c(C)c1
inactive: [1] 114 % of control and 122 % of control | [2] 115 % of control and 118 % of control and 124 % of control | [3] 115 % of control

O=C1OCCN1CCCl
inactive: dose: 100.0 mg/kg/injection, schedule: Q01DX009 (ip), vehicle: Klucel (hydroxypropylcellulose) (HPC) 118 % of control | dose: 200.0 mg/kg/injection, schedule: Q01DX009 (ip), vehicle: Klucel (hydroxypropylcellulose) (HPC) 121 % of control | dose: 400.0 mg/kg/injection, schedule: Q01DX009 (ip), vehicle: Klucel (hydroxypropylcellulose) (HPC) 121 % of control

COC(=O)c1ccc(C(=O)OC)c2nc3cc([N+](=O)[O-])ccc3nc12
inactive: dose: 60.0 mg/kg/injection, schedule: Q01DX005 (ip), vehicle: suspension in saline 100 % of control | dose: 120.0 mg/kg/injection, schedule: Q01DX005 (ip), vehicle: suspension in saline 102 % of control

CC1(C)CC(C)(C)[P+]1(C)c1ccccc1
inactive: dose: 25.0 mg/kg/injection, schedule: Q01DX001 (ip), vehicle: saline 107 % of control | dose: 50.0 mg/kg/injection, schedule: Q01DX001 (ip), vehicle: saline 103 % of control

Nc1ncc2c(=O)c3c(ccc4ccccc43)oc2n1
inactive: dose: 12.5 mg/kg/injection, schedule: Q01DX009 (ip), vehicle: saline with Tween-80 96 % of control | [7] 98 % of control | [8] 90 % of control | [10] 87 % of control

O=C1C2(CC3C=CC2C3)C(=O)C12CC1C=CC2C1 (centres undefined)
inactive: [8] 102 % of control | [10] 100 % of control | [12] 103 % of control

N#CC(=Nc1ccc(F)cc1F)C1=C(O)c2ccccc2C1=O
inactive: dose: 12.5 mg/kg/injection, schedule: Q01DX005 (ip), vehicle: saline with Tween-80 97 % of control | dose: 25.0 mg/kg/injection, schedule: Q01DX005 (ip), vehicle: saline with Tween-80 105 % of control | [1] 100 % of control

CCOCc1nc(N)nc(N)c1-c1cccc(Cl)c1
inactive: [13] 100 % of control | [14] 102 % of control

— PubChem BioAssay AID330 (DTP/NCI, 2004)
